ChEMBL document CHEMBL1121380, “Perspective on the design and biochemical pharmacology of inhibitors of thymidylate synthetase” (J Med Chem, 1980)

Key:
[1] = Michaelis-Menten constant for Uridine phosphorylase
[2] = In vitro inhibition against mammalian Uridine phosphorylase
[3] = substrate: O=c1[nH]c(=S)ccn1[C@H]1C[C@H](O)[C@@H](COP(=O)(O)O)O1; test: Michaelis-Menten constant for dTMP synthetase; conditions: Lacticaseibacillus casei

C[C@H]1OC(n2ccc(=O)[nH]c2=O)[C@H](O)[C@@H]1O (stereo partly drawn)
Km [1]: 1000 µM

Oc1ncc(Cc2ccccc2)c(O)n1
Ki [2]: ~1000 nM

B1: Thymidylate synthase (Lactobacillus casei), P00469 (protein)
chain: MLEQPYLDLAKKVLDEGHFKPDRTHTGTYSIFGHQMRFDLSKGFPLLTTKKVPFGLIKSELLWFLHGDTNIRFLLQHRNHIWDEWAFEKWVKSDEYHGPDMTDFGHRSQKDPEFAAVYHEEMAKFDDRVLHDDAFAAKYGDLGLVYGSQWRAWHTSKGDTIDQLGDVIEQIKTHPYSRRLIVSAWNPEDVPTMALPPCHTLYQFYVNDGKLSLQLYQRSADIFLGVPFNIASYALLTHLVAHECGLEVGEFIHTFGDAHLYVNHLDQIKEQLSRTPRPAPTLQLNPDKHDIFDFDMKDIKLLNYDPYPAIKAPVAV
Km [3]: 70 µM
